According to patent US20250090510A1, “eIF4G1-eIF1 INHIBITORS AND USE THEREOF” (YEDA RESEARCH AND DEVELOPMENT CO. LTD., priority 2022, published 2025):

Tests used:
[1] = test system: 5′UTR length-dependent translation in HEK293T cells; assay: Firefly luciferase reporters with long (354 nt) and short (111 nt) 5′UTR; type: cell-based, human; conditions: 5 μM, 16 h
Experimental: FIGS. 5A-D: 5′UTR length-dependent translational control by the eIF1-eIF4G1. […] The asterisks denote a statistically significant difference. **p<0.01, ****p<0.0001. (5B) A scheme of the firefly reporter genes that are driven by long (354 nt) and short (111 nt) 5′ UTR length, is shown on the top. HEK293T cells were transfected with these reporter genes. After 4 h, transfected cells were treated with DMSO, i14G1-10 (5 μM), or i14G1-12 (5 μM) for 16 h and analyzed for firefly luciferase activities. The graph presents the normalized luminescence activity of the long 5′UTR and the short 5′UTR reporters in the indicated treatments. The data are shown as mean±SEM, n=6. The asterisks denote statistically significant difference compared to DMSO, according to Student's t-tests (one-tailed, paired). *p<0.05; **p<0.01. (5C-D) HEK293T cells were treated with DMSO, i14G1-10, and i14G1-12 for 3 h, lysed, and subjected to sucrose gradient sedimentation and fractionation. Fractions were pooled according to polysome profile as free (grey), light (blue), and heavy (yellow) polysomal fractions. cDNA was prepared from each fraction pool and real-time PCR was performed for the indicated TISU genes (5C) or histone genes (5D). The data are shown as mean±SEM, n=3. The asterisks denote statistically significant difference compared to DMSO, according to Student's t-tests (one-tailed, paired), *p<0.05; **p<0.01.
Since both eIF1 and eIF4G1 are important for scanning, the relationship between the translational effects of the inhibitors and the 5′UTR length was examined. […] To investigate further the link between the effect of the drug and 5′UTR length, we used two firefly luciferase reporters we used that differ only in their 5′UTR length: a short 5′UTR with 111 nucleotides and a long 5′UTR with 354 nucleotides. […] These findings confirm the inhibitory effect of these compounds on the scanning promoting activity of the eIF1-eIF4G1 complex.

[2] = test system: near cognate start codon initiation in HEK293T cells; assay: Firefly luciferase reporter with AUG or near cognate start codons; type: cell-based, human; conditions: 5 μM, 16 h
Experimental: FIGS. 4A-L: The effect eIF1-eIF4G1 inhibition by i14G1-10 or i14G1-12 on global translation is linked to start codon stringency. (4A) HEK293T cells were treated with DMSO, i14G1-10 (20 μM), and i14G-20 (10 μM) for 3 h and then ribosome foot printing libraries were prepared, sequenced and analyzed as described in the scheme. The presented graphs show meta-gene analysis of the distribution of normalized reads in the coding region (CDS) and 5′UTR of all analyzed genes in DMSO (black), i14G1-10 (blue), and i14G1-12 (red). […] (4F) The translation efficiency of eIF1 in DMSO, i14G1-10 and i14G1-12 samples calculated from the Ribo-seq data. […] (4J) Scatter plots showing the translation efficiencies correlations (R2 >0.9) of all analyzed genes between the two independent replicate experiments with DMSO (vehicle control) (top), i14G1-10 (middle), and i14G1-12 (bottom). (4K) Scatter plots showing the translation efficiencies correlations between 5′UTR and CDS (Pearson's r >0.5) of all analyzed genes of two independent replicate experiments with i14G1-10 (left) and i14G1-12 (right).
Reporter assays. […] The luminescence was measured on Turner Biosystems Luminometer.
Next, the sequence context of the translation initiation site (TIS) in the ribosome footprints of the 5′UTR in DMSO, i14G1-10 or i14G1-12 samples was determined. To assign the 5′UTR TISs, the Hrr+CHX reads were used (see Materials and Methods). […]

Row | SMILES | luciferase reporter expression driven by the longer 5′UTR (354 nucleotides) [1] | luciferase reporter expression driven by the shorter 5′UTR (111 nucleotides) [1] | near cognate start codon reporter activities relative to AUG [2]
1 | O=C(/C=C/Sc1ccc(C(F)(F)F)cn1)c1ccccc1 [i14G1-10] | significantly decreased | did not affect | significantly enhanced the activities of ACG, CUG, GUG, and UUG relative to AUG
2 | Cn1ccnc1S/C(=C/C=C(C#N)C#N)c1ccc(Cl)cc1 [i14G1-12] | significantly decreased | did not affect | significantly enhanced the activities of ACG, CUG, GUG, and UUG relative to AUG
